# Test results reported in patent US20240336654A1, “ANTIMICROBIAL PEPTIDOMIMETICS” (SPEXIS AG, priority 2021, published 2024).
# Where a SMILES comes first, the peptide text is derived from it. Bridges are numbered along the chain shown (N, C = ends). [ ]: non-standard residue; d: D form. The star is where a group is joined. Val(Nα-amidino) = CC(C)[C@H](NC(=N)N)C(=O)*; Hyp = O=C(O)[C@@H]1C[C@@H](O)CN1; Cit = NC(=O)NCCC[C@H](N)C(=O)O; Pen = CC(C)(S)[C@H](N)C(=O)O; dDab = NCC[C@@H](N)C(=O)O; hSer = N[C@@H](CCO)C(=O)O; Orn = NCCC[C@H](N)C(=O)O; Dab = NCC[C@H](N)C(=O)O
# Experiments:
# Format in all cases: cell-based
# [1] = tested on: Escherichia coli ATCC 25922; details: ATCC 25922
# Summary of the method: (§1)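 CLSI broth microdilution, slightly modified: cation-adjusted Mueller-Hinton II broth with about 5×10^5 CFU/mL from a 0.5 McFarland suspension, and two-fold serial peptide dilutions with Polysorbate 80 at 0.002% final. MIC (μg/mL) was the lowest concentration with no visible growth after 18-20 hours at 35° C.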
# [2] = tested on: Escherichia coli MCR-1 Af 45; details: MCR-1 Af 45
# Summary of the method: as §1
# [3] = tested on: Klebsiella pneumoniae SSI3010; details: SSI3010
# Summary of the method: as §1
# [4] = tested on: human red blood cells (hRBC); details: red cells of human, 1 h, 200 μg/mL
# Summary of the method: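 Percent hemolysis derived from OD540 of supernatants relative to full lysis by 2.5% Triton X-100 (PBS baseline). Washed fresh human erythrocytes (20% v/v) were exposed to 200 μg/mL peptide for 1 h at 37 °C with shaking.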
SMILES,Escherichia coli ATCC 25922 MIC [1],Escherichia coli MCR-1 Af45 MIC [2],Klebsiella pneumoniae SSI3010 MIC [3],Hemolysis at 0.2 g/L [4]
"CC[C@H](C)[C@H](NC(=O)[C@@H]1C[C@@H](O)CN1C(=O)[C@@H](NC(=N)N)C(C)C)C(=O)N[C@H]1CCNC(=O)CC[C@@H](C(=O)N[C@@H](Cc2ccc(O)cc2)C(=O)O)NC(=O)[C@H](CCN)NC(=O)[C@H](CCN)NC(=O)[C@H](CCCCN)NC(=O)[C@@H](CCN)NC(=O)[C@H]([C@@H](C)O)NC(=O)[C@H](CCN)NC(=O)[C@H](CCCNC(=N)N)NC(=O)[C@H](CC(N)=O)NC(=O)[C@H](CCO)NC(=O)[C@H](Cc2ccc(O)cc2)NC1=O [Example 118, Gua-Val-Hyp-Ile-Dab-Tyr-Hse-Asn-Arg-Dab-Thr-^DDab-Lys-Dab-Dab-Glu-Tyr] ({Val(Nα-amidino)}-[Hyp]I[Dab]Y[hSer]NR[Dab]T[dDab]K[Dab][Dab]EY-OH; lactam 3-14)",0.0625 µg/mL,0.0625 µg/mL,0.125 µg/mL,<1%
"CC[C@H](C)[C@H](NC(=O)[C@@H]1C[C@@H](O)CN1C(=O)[C@@H](NC(=N)N)C(C)C)C(=O)N[C@H]1CCNC(=O)CC[C@@H](C(=O)N[C@@H](Cc2ccc(O)cc2)C(=O)O)NC(=O)[C@H](CCN)NC(=O)[C@H](CCN)NC(=O)[C@H](CCCN)NC(=O)[C@@H](CCN)NC(=O)[C@H]([C@@H](C)O)NC(=O)[C@H](CCN)NC(=O)[C@H](CCCNC(=N)N)NC(=O)[C@H](CC(N)=O)NC(=O)[C@H]([C@@H](C)O)NC(=O)[C@H](Cc2ccc(O)cc2)NC1=O [Example 119, Gua-Val-Hyp-Ile-Dab-Tyr-Thr-Asn-Arg-Dab-Thr-^DDab-Orn-Dab-Dab-Glu-Tyr] ({Val(Nα-amidino)}-[Hyp]I[Dab]YTNR[Dab]T[dDab][Orn][Dab][Dab]EY-OH; lactam 3-14)",0.0625 µg/mL,0.0625 µg/mL,0.125 µg/mL,<1%
"CC[C@H](C)[C@H](NC(=O)[C@@H]1C[C@@H](O)CN1C(=O)[C@@H](NC(=N)N)C(C)C)C(=O)N[C@@H]1C(=O)N[C@@H](Cc2ccc(O)cc2)C(=O)N[C@@H](CCN)C(=O)N[C@@H](CC(N)=O)C(=O)N[C@@H](CCCNC(=N)N)C(=O)N[C@@H](CCN)C(=O)N[C@@H]([C@@H](C)O)C(=O)N[C@H](CCN)C(=O)N[C@@H](CCN)C(=O)N[C@@H]([C@@H](C)O)C(=O)N[C@@H](CCN)C(=O)N[C@H](C(=O)N[C@@H](Cc2ccc(O)cc2)C(=O)O)CSSC1(C)C [Example 120, Gua-Val-Hyp-Ile-Pen-Tyr-Dab-Asn-Arg-Dab-Thr-^DDab-Dab-Thr-Dab-Cys-Tyr] ({Val(Nα-amidino)}-[Hyp]I[Pen]Y[Dab]NR[Dab]T[dDab][Dab]T[Dab]CY-OH; disulfide 3-14)",0.125 µg/mL,0.0625 µg/mL,0.125 µg/mL,<1%
"CC[C@H](C)[C@H](NC(=O)[C@@H]1C[C@@H](O)CN1C(=O)[C@@H](NC(=N)N)C(C)C)C(=O)N[C@@H]1C(=O)N[C@@H](Cc2ccc(O)cc2)C(=O)N[C@@H](CCN)C(=O)N[C@@H](CC(N)=O)C(=O)N[C@@H](CCCNC(=N)N)C(=O)N[C@@H](CCN)C(=O)N[C@@H]([C@@H](C)O)C(=O)N[C@H](CCN)C(=O)N[C@@H](CCCN)C(=O)N[C@@H]([C@@H](C)O)C(=O)N[C@@H](CCN)C(=O)N[C@H](C(=O)N[C@@H](Cc2ccc(O)cc2)C(=O)O)CSSC1(C)C [Example 121, Gua-Val-Hyp-Ile-Pen-Tyr-Dab-Asn-Arg-Dab-Thr-^DDab-Orn-Thr-Dab-Cys-Tyr] ({Val(Nα-amidino)}-[Hyp]I[Pen]Y[Dab]NR[Dab]T[dDab][Orn]T[Dab]CY-OH; disulfide 3-14)",0.0625 µg/mL,0.0625 µg/mL,0.125 µg/mL,<1%
"CC[C@H](C)[C@H](NC(=O)[C@@H]1C[C@@H](O)CN1C(=O)[C@@H](NC(=N)N)C(C)C)C(=O)N[C@@H]1C(=O)N[C@@H](Cc2ccc(O)cc2)C(=O)N[C@@H]([C@@H](C)O)C(=O)N[C@@H](CC(N)=O)C(=O)N[C@@H](CCCNC(=N)N)C(=O)N[C@@H](CCN)C(=O)N[C@@H]([C@@H](C)O)C(=O)N[C@H](CCN)C(=O)N[C@@H](CCCN)C(=O)N[C@@H](CCN)C(=O)N[C@@H](CCN)C(=O)N[C@H](C(=O)N[C@@H](Cc2ccc(O)cc2)C(=O)O)CSSC1(C)C [Example 124, Gua-Val-Hyp-Ile-Pen-Tyr-Thr-Asn-Arg-Dab-Thr-^DDab-Orn-Dab-Dab-Cys-Tyr] ({Val(Nα-amidino)}-[Hyp]I[Pen]YTNR[Dab]T[dDab][Orn][Dab][Dab]CY-OH; disulfide 3-14)",0.03125 µg/mL,0.03125 µg/mL,0.125 µg/mL,<1%

# More lines, main results first:
Escherichia coli ATCC 25922 MIC [1],Escherichia coli MCR-1 Af45 MIC [2],Klebsiella pneumoniae SSI3010 MIC [3],SMILES,Hemolysis at 0.2 g/L [4]
0.125 µg/mL,0.0625 µg/mL,0.125 µg/mL,"CC[C@H](C)[C@H](NC(=O)[C@@H]1C[C@@H](O)CN1C(=O)[C@@H](NC(=N)N)C(C)C)C(=O)N[C@@H]1C(=O)N[C@@H](Cc2ccc(O)cc2)C(=O)N[C@@H](CCO)C(=O)N[C@@H](CC(N)=O)C(=O)N[C@@H](CCCNC(=N)N)C(=O)N[C@@H](CCN)C(=O)N[C@@H]([C@@H](C)O)C(=O)N[C@H](CCN)C(=O)N[C@@H](CCCCN)C(=O)N[C@@H](CCN)C(=O)N[C@@H](CCN)C(=O)N[C@H](C(=O)N[C@@H](Cc2ccc(O)cc2)C(=O)O)CSSC1(C)C [Example 117, Gua-Val-Hyp-Ile-Pen-Tyr-Hse-Asn-Arg-Dab-Thr-^DDab-Lys-Dab-Dab-Cys-Tyr] ({Val(Nα-amidino)}-[Hyp]I[Pen]Y[hSer]NR[Dab]T[dDab]K[Dab][Dab]CY-OH; disulfide 3-14)",<1%
0.125 µg/mL,0.25 µg/mL,0.25 µg/mL,"CC[C@H](C)[C@H](NC(=O)[C@@H]1C[C@@H](O)CN1C(=O)[C@@H](NC(=N)N)C(C)C)C(=O)N[C@@H]1C(=O)N[C@@H](Cc2ccc(O)cc2)C(=O)N[C@@H](CCCNC(N)=O)C(=O)N[C@@H](CC(N)=O)C(=O)N[C@@H](CCCNC(=N)N)C(=O)N[C@@H](CCN)C(=O)N[C@@H]([C@@H](C)O)C(=O)N[C@H](CCN)C(=O)N[C@@H](CO)C(=O)N[C@@H](CCN)C(=O)N[C@@H](CCN)C(=O)N[C@H](C(=O)N[C@@H](Cc2ccc(O)cc2)C(=O)O)CSSC1(C)C [Example 122, Gua-Val-Hyp-Ile-Pen-Tyr-Cit-Asn-Arg-Dab-Thr-^DDab-Ser-Dab-Dab-Cys-Tyr] ({Val(Nα-amidino)}-[Hyp]I[Pen]Y[Cit]NR[Dab]T[dDab]S[Dab][Dab]CY-OH; disulfide 3-14)",<1%
0.0625 µg/mL,0.03125 µg/mL,0.0625 µg/mL,"CC[C@H](C)[C@H](NC(=O)[C@@H]1C[C@@H](O)CN1C(=O)[C@@H](NC(=N)N)C(C)C)C(=O)N[C@@H]1C(=O)N[C@@H](Cc2ccc(O)cc2)C(=O)N[C@@H]([C@@H](C)O)C(=O)N[C@@H](CC(N)=O)C(=O)N[C@@H](CCCNC(=N)N)C(=O)N[C@@H](CCN)C(=O)N[C@@H]([C@@H](C)O)C(=O)N[C@H](CCN)C(=O)N[C@@H](CCN)C(=O)N[C@@H](CCN)C(=O)N[C@@H](CCN)C(=O)N[C@H](C(=O)N[C@@H](Cc2ccc(O)cc2)C(=O)O)CSSC1(C)C [Example 123, Gua-Val-Hyp-Ile-Pen-Tyr-Thr-Asn-Arg-Dab-Thr-^DDab-Dab-Dab-Dab-Cys-Tyr] ({Val(Nα-amidino)}-[Hyp]I[Pen]YTNR[Dab]T[dDab][Dab][Dab][Dab]CY-OH; disulfide 3-14)",<1%
